Experimental data published in the supplement of paper PMC11208160.

Assay: recombinant UMI read abundance after kanamycin selection (control-corrected) (log10(CPM+1)); higher = more efficient recombination; extreme values may be limits of the assay; sequences stand for … in AGTGCAGAGAAAATCGGCCAGTTTTCTCTGCCTGCAGTCCGCATGCCGTGGGACCCCTTGGGTTCTAACCTGTTGCCTAGATTTATGCAGCGGACTGCCTTTCTCCCAAAGTGATAAACCGG…AGGTTGGTTTCACT; site = the 11-nt donor
Procedure, shortened: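 Counts of recombinant UMIs were reported as log10(CPM+1). Before that, they were converted to CPM, averaged over replicates and scaled using control-derived factors. They came from PCR across the donor–target junction after Escherichia coli carrying the pair library and target plasmid was plated on IPTG (0.07 mM) plus kanamycin, or unselected, in two replicates each.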
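Note: IS621 bridge recombinase in Escherichia coli cells against a fixed T5 target plasmid.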

Sequence | recombinant UMI read abundance (log10)
CCCTTCTCATGGACCGGTTTTCCCGGTAATCCGTATTTGGT (site CCCTTCTCTGC) | 0
CCCTTCTCATGGACCGGTTTTCCCGGTAATCCGTATTTGGT (site CCCTTCTCTTC) | 0.121
CCCTTGGCATGGACCGGTTTTCCCGGTAATCCGTATTTGGA (site CACTTGGCTTC) | 0.0394
CCCTTGGCATGGACCGGTTTTCCCGGTAATCCGTATTTGGA (site CCCTTGGCTTC) | 0.107
CCCTTGGCATGGACCGGTTTTCCCGGTAATCCGTATTTGGA (site CGCTTGGCTTC) | 0.0127
CCCTTGGCATGGACCGGTTTTCCCGGTAATCCGTATTTGGA (site CTCTTGGCTTC) | 0.00833
CCGAAAACATGGACCGGTTTTCCCGGTAATCCGTATTTGCT (site ACGAAAACTAG) | 0
CCGAAAACATGGACCGGTTTTCCCGGTAATCCGTATTTGCT (site CCGAAAACTAG) | 0.973
CCGAAAACATGGACCGGTTTTCCCGGTAATCCGTATTTGCT (site GCGAAAACTAG) | 0
CCGAAAACATGGACCGGTTTTCCCGGTAATCCGTATTTGCT (site TCGAAAACTAG) | 0
CCGAAACCATGGACCGGTTTTCCCGGTAATCCGTATTTGCG (site CCGAAACCTCG) | 0
CCGAATCCATGGACCGGTTTTCCCGGTAATCCGTATTTGTT (site CAGAATCCTAA) | 0
CCGAATCCATGGACCGGTTTTCCCGGTAATCCGTATTTGTT (site CCGAATCCTAA) | 0.251
CCGAATCCATGGACCGGTTTTCCCGGTAATCCGTATTTGTT (site CGGAATCCTAA) | 0
CCGAATCCATGGACCGGTTTTCCCGGTAATCCGTATTTGTT (site CTGAATCCTAA) | 0.00536
CCGACCGCATGGACCGGTTTTCCCGGTAATCCGTATTTGTA (site CCGACCGCTTA) | 0.904
CCGAGTCCATGGACCGGTTTTCCCGGTAATCCGTATTTGAA (site CCGAGTCCTTT) | 0.417
CCGATTACATGGACCGGTTTTCCCGGTAATCCGTATTTGCT (site CCGATTACTAG) | 0.743
CCGATTACATGGACCGGTTTTCCCGGTAATCCGTATTTGCT (site CCGCTTACTAG) | 0
CCGATTACATGGACCGGTTTTCCCGGTAATCCGTATTTGCT (site CCGGTTACTAG) | 0
CCGATTACATGGACCGGTTTTCCCGGTAATCCGTATTTGCT (site CCGTTTACTAG) | 0
CCGCCACCATGGACCGGTTTTCCCGGTAATCCGTATTTGAT (site CCGCCACCTAT) | 0.00762
CCGCCGACATGGACCGGTTTTCCCGGTAATCCGTATTTGTT (site CCGCCGACTAA) | 0.275
CCGCTACCATGGACCGGTTTTCCCGGTAATCCGTATTTGCT (site CAGCTACCTAG) | 0
CCGCTACCATGGACCGGTTTTCCCGGTAATCCGTATTTGCT (site CCGCTACCTAG) | 0

Sequence | recombinant UMI read abundance (log10)
CCGCTACCATGGACCGGTTTTCCCGGTAATCCGTATTTGCT (site CGGCTACCTAG) | 0
CCGCTACCATGGACCGGTTTTCCCGGTAATCCGTATTTGCT (site CTGCTACCTAG) | 0.00224
CCGCTAGCATGGACCGGTTTTCCCGGTAATCCGTATTTGTG (site CCGATAGCTCA) | 0.0148
CCGCTAGCATGGACCGGTTTTCCCGGTAATCCGTATTTGTG (site CCGCTAGCTCA) | 0.337
CCGCTAGCATGGACCGGTTTTCCCGGTAATCCGTATTTGTG (site CCGGTAGCTCA) | 0.0182
CCGCTAGCATGGACCGGTTTTCCCGGTAATCCGTATTTGTG (site CCGTTAGCTCA) | 0
CCGCTTACATGGACCGGTTTTCCCGGTAATCCGTATTTGCT (site CCGATTACTAG) | 0
CCGCTTACATGGACCGGTTTTCCCGGTAATCCGTATTTGCT (site CCGCTTACTAG) | 1.48
CCGCTTACATGGACCGGTTTTCCCGGTAATCCGTATTTGCT (site CCGGTTACTAG) | 0
CCGCTTACATGGACCGGTTTTCCCGGTAATCCGTATTTGCT (site CCGTTTACTAG) | 0
CCGCTTCCATGGACCGGTTTTCCCGGTAATCCGTATTTGTC (site CCGCTTCCTGA) | 0
CCGCTTTCATGGACCGGTTTTCCCGGTAATCCGTATTTGAG (site CCGCTTTCTCT) | 0.19
CCGGAAACATGGACCGGTTTTCCCGGTAATCCGTATTTGTT (site CCGGAAACTAA) | 1.15
CCGGATCCATGGACCGGTTTTCCCGGTAATCCGTATTTGTT (site CCGGATCCTAA) | 0.556
CCGGATCCATGGACCGGTTTTCCCGGTAATCCGTATTTGTT (site CGGAATCCTAA) | 0.00344
CCGGCTACATGGACCGGTTTTCCCGGTAATCCGTATTTGAT (site CCGGCTACTAT) | 1.37
CCGGGGCCATGGACCGGTTTTCCCGGTAATCCGTATTTGAT (site CCGGGGCCTAT) | 0.04
CCGGGTGCATGGACCGGTTTTCCCGGTAATCCGTATTTGAT (site CCAGGTGCTAT) | 1.63
CCGGGTGCATGGACCGGTTTTCCCGGTAATCCGTATTTGAT (site CCCGGTGCTAT) | 0.797
CCGGGTGCATGGACCGGTTTTCCCGGTAATCCGTATTTGAT (site CCGGGTGCTAT) | 1.25
CCGGGTGCATGGACCGGTTTTCCCGGTAATCCGTATTTGAT (site CCTGGTGCTAT) | 0.428
CCGGGTTCATGGACCGGTTTTCCCGGTAATCCGTATTTGGC (site CCGGGTTCTGC) | 1.57
CCGTCAACATGGACCGGTTTTCCCGGTAATCCGTATTTGCT (site CCGTCAACTAG) | 0
CCGTCGCCATGGACCGGTTTTCCCGGTAATCCGTATTTGTC (site CCGTCGCCTGA) | 0
CCGTTACCATGGACCGGTTTTCCCGGTAATCCGTATTTGAG (site CCGTTACCTCT) | 0.0156

Sequence | recombinant UMI read abundance (log10)
CCGTTAGCATGGACCGGTTTTCCCGGTAATCCGTATTTGAG (site CCGTTAGCTCA) | 0.0714
CCGTTAGCATGGACCGGTTTTCCCGGTAATCCGTATTTGAG (site CCGTTAGCTCC) | 0.006
CCGTTAGCATGGACCGGTTTTCCCGGTAATCCGTATTTGAG (site CCGTTAGCTCG) | 0.00749
CCGTTAGCATGGACCGGTTTTCCCGGTAATCCGTATTTGAG (site CCGTTAGCTCT) | 0.692
CCGTTCGCATGGACCGGTTTTCCCGGTAATCCGTATTTGTG (site CCGTTAGCTCA) | 0.00765
CCGTTCGCATGGACCGGTTTTCCCGGTAATCCGTATTTGTG (site CCGTTCGCTCA) | 0.0261
CCGTTCGCATGGACCGGTTTTCCCGGTAATCCGTATTTGTG (site CCGTTGGCTCA) | 0.0144
CCGTTCGCATGGACCGGTTTTCCCGGTAATCCGTATTTGTG (site CCGTTTGCTCA) | 0.00651
CCGTTGGCATGGACCGGTTTTCCCGGTAATCCGTATTTGTG (site CCGTTAGCTCA) | 0.661
CCGTTGGCATGGACCGGTTTTCCCGGTAATCCGTATTTGTG (site CCGTTCGCTCA) | 0.0171
CCGTTGGCATGGACCGGTTTTCCCGGTAATCCGTATTTGTG (site CCGTTGGCTCA) | 0.286
CCGTTGGCATGGACCGGTTTTCCCGGTAATCCGTATTTGTG (site CCGTTTGCTCA) | 0.00375
CCGTTGTCATGGACCGGTTTTCCCGGTAATCCGTATTTGTC (site CCGTTGTCTGA) | 0
CCGTTTACATGGACCGGTTTTCCCGGTAATCCGTATTTGAT (site CCGTTTACTAA) | 0.0556
CCGTTTACATGGACCGGTTTTCCCGGTAATCCGTATTTGAT (site CCGTTTACTAC) | 0
CCGTTTACATGGACCGGTTTTCCCGGTAATCCGTATTTGAT (site CCGTTTACTAG) | 0
CCGTTTACATGGACCGGTTTTCCCGGTAATCCGTATTTGAT (site CCGTTTACTAT) | 0
CCTAAAGCATGGACCGGTTTTCCCGGTAATCCGTATTTGAA (site CCTAAAGCTAT) | 0
CCTAAAGCATGGACCGGTTTTCCCGGTAATCCGTATTTGAA (site CCTAAAGCTCT) | 0.00343
CCTAAAGCATGGACCGGTTTTCCCGGTAATCCGTATTTGAA (site CCTAAAGCTGT) | 0
CCTAAAGCATGGACCGGTTTTCCCGGTAATCCGTATTTGAA (site CCTAAAGCTTT) | 0.699
CCTAAAGCATGGACCGGTTTTCCCGGTAATCCGTATTTGTT (site CCTAAAGCTAA) | 0.0032
CCTAAAGCATGGACCGGTTTTCCCGGTAATCCGTATTTGTT (site CCTAAAGCTAC) | 0
CCTAAAGCATGGACCGGTTTTCCCGGTAATCCGTATTTGTT (site CCTAAAGCTAG) | 0
CCTAAAGCATGGACCGGTTTTCCCGGTAATCCGTATTTGTT (site CCTAAAGCTAT) | 0.00347
